Our source for the viability, T/C and IC50 values is PubChem BioAssay AID2060487 (Molecular Pharmacology Branch, DTP, NCI, 2025).

The structures appear in SMILES notation. Values joined by “and” are separate entries in the source; they are usually repeats but may differ in a detail not shown here. Identical values can stand only once.

This test concerns 997537-175-T-J1-PDC complex spheroid viability. Put plainly: Anticancer human tumor 997537-175-T-J1-PDC patient-derived colon adenocarcinoma cell line growth inhibition [GQUAD]. The conditions noted are these: for viability, T/C: stronger effect = lower value. From the text: DNA G-quadruplex Stabilizer Agents in Combinations in Complex Spheroids
A high-throughput screen of multi-cell type tumor spheroids was designed to identify active combinations of DNA G-quadruplex stabilizer agents and targeted small molecules. Complex spheroids include a stromal component modeled by human endothelial cells (HUVEC) and fibroblasts modeled by human mesenchymal stem cells (MSCs). The concentration ranges selected for each drug and investigational agent were based upon clinically achievable concentrations if the clinical Cmax of the agent was known.
Compounds. The drugs and investigational agents: pidnarulex (CX-5461; NSC782164), APTO-253 (NSC789042), BRACO-19 (NSC847499), peposertib (NSC802822), ceralasertib (NSC780249), elimusertib (NSC800525), camonsertib (NSC841442), AZD-1390 (NSC803789), olaparib (NSC753686), talazoparib (NSC767125), ART-558 (NSC835418), sotorasib (NSC818433), MRTX-1133 (NSC836407), SN-38 (NSC673596), topotecan (NSC609699), etoposide (NSC141540), doxorubicin (NSC123127), gemcitabine (NSC613327), 5-fluorouracil (NSC19893), paclitaxel (NSC125973), vemurafenib (NSC761431), panobinostat (NSC761190), R-306465 (JNJ-16241199; NSC773264), adavosertib (NSC754352), TP-3654 (NSC805149), carboplatin (NSC241240), KSQ-4279 (NSC840948), and staurosporine (NSC755774) were obtained from the National Cancer Institute (NCI) Developmental Therapeutics Program Chemical Repository (34). The FDA-approved anticancer drug set is available from the NCI Developmental Therapeutics Program. […] The stock solutions were prepared in dimethyl sulfoxide (DMSO, Sigma-Aldrich, St. Louis, MO, cat. D2650) at 800-fold the tested concentration and stored at -70 degrees C prior to their use. All drugs and investigational agents were tested over a range starting from a high concentration at or near the clinical Cmax and decreasing in half-log increments. If the clinical Cmax for an agent had not been determined, the highest concentration tested was 10 microM.
2.3 Cell Culture. All cells were maintained in an incubator at 37 degrees C and 5% CO2 with 95% humidity. The PDC lines were cultured according to standard operating procedures established by the NCI PDMR. All PDCs were thawed and cultured in Matrigel-coated flasks prepared with a working solution of 1X Ham's F-12 nutrient mix, without supplementation (Invitrogen, cat. 11765054), 100 U/mL penicillin-streptomycin (Invitrogen, cat. 15140122), and 2.5% Matrigel (Corning Inc., cat. 354248) for the first three passages. The 857933-349-R-J2-PDC line was cultured in 6C/Colon 1B media, which includes advanced DMEM/F-12 (Thermo Fisher Scientific, cat. 12634028), 10 mM HEPES (Thermo Fisher Scientific, cat. 15630080), 1X GlutaMAX supplement (Thermo Fisher Scientific, cat. 35050061), 0.1 mg/mL primocin (InvivoGen, cat. ant-pm-2), 10% defined fetal bovine serum, heat inactivated (HyClone Laboratories Inc., cat. SH30070.03HI), 50% L-WRN conditioned media (ATCC, cat. CRL-3276), 1.25 mM N-Acetyl-L-cysteine (Sigma-Aldrich, cat. A9165), 10 mM nicotinamide (Sigma-Aldrich, cat. N0636), 1X B-27 supplement (Thermo Fisher Scientific, cat. 17504044), 1X N-2 supplement (Thermo Fisher Scientific, cat. 17502048), 10 microM Y-27632 dihydrochloride (Tocris Bioscience, cat. 1254), and 50 ng/mL human EGF recombinant protein (Thermo Fisher Scientific, cat. PHG0311). The 485176-168-R4-J1-PDC line was cultured in Panc media, which includes all 6C/Colon 1B media components plus 100 ng/mL human FGF-10 (Thermo Fisher Scientific, cat. 100-26), 500 nM SB-431542 (Selleckchem, cat. S1067), and gastrin (Tocris, cat. 3006).
[…]

The mark [1] stands for this setting: compound alone, run of 04/22/2024.
Where [2] appears, read: compound alone, run of 04/16/2024.
Where [3] appears, read: curve of first compound, second compound 0.0316 µM.
Where [4] appears, read: curve of first compound, second compound 0.1 µM.
[5] abbreviates: curve of first compound, second compound 0.316 µM.
Where [6] appears, read: curve of first compound, second compound 1 µM.
[7] abbreviates: curve of first compound, second compound 3.16 µM.
[8] abbreviates: curve of first compound, second compound 10 µM.
Setting [9] is: second compound 0.0316 µM, first compound 0.0316 µM.
Setting [10] is: second compound 0.0316 µM, first compound 0.1 µM.
Where [11] appears, read: second compound 0.0316 µM, first compound 0.316 µM.
Where [12] appears, read: second compound 0.0316 µM, first compound 1 µM.
Where [13] appears, read: second compound 0.0316 µM, first compound 3.16 µM.
[14] abbreviates: second compound 0.0316 µM, first compound 10 µM.
The mark [15] stands for this setting: second compound 0.1 µM, first compound 0.0316 µM.
The mark [16] stands for this setting: second compound 0.1 µM, first compound 0.1 µM.
The mark [17] stands for this setting: second compound 0.1 µM, first compound 0.316 µM.
Setting [18] is: second compound 0.1 µM, first compound 1 µM.
Where [19] appears, read: second compound 0.1 µM, first compound 3.16 µM.
The mark [20] stands for this setting: second compound 0.1 µM, first compound 10 µM.
[21] abbreviates: second compound 0.316 µM, first compound 0.0316 µM.
Where [22] appears, read: second compound 0.316 µM, first compound 0.1 µM.
Where [23] appears, read: second compound 0.316 µM, first compound 0.316 µM.
Where [24] appears, read: second compound 0.316 µM, first compound 1 µM.
Where [25] appears, read: second compound 0.316 µM, first compound 3.16 µM.
[26] abbreviates: second compound 0.316 µM, first compound 10 µM.
The mark [27] stands for this setting: second compound 1 µM, first compound 0.0316 µM.
The mark [28] stands for this setting: second compound 1 µM, first compound 0.1 µM.
The mark [29] stands for this setting: second compound 1 µM, first compound 0.316 µM.
Setting [30] is: second compound 1 µM, first compound 1 µM.
[31] abbreviates: second compound 1 µM, first compound 3.16 µM.
Where [32] appears, read: second compound 1 µM, first compound 10 µM.
Setting [33] is: second compound 3.16 µM, first compound 0.0316 µM.
[34] abbreviates: second compound 3.16 µM, first compound 0.1 µM.
[35] abbreviates: second compound 3.16 µM, first compound 0.316 µM.
[36] abbreviates: second compound 3.16 µM, first compound 1 µM.
The mark [37] stands for this setting: second compound 3.16 µM, first compound 3.16 µM.
Setting [38] is: second compound 3.16 µM, first compound 10 µM.
Setting [39] is: second compound 10 µM, first compound 0.0316 µM.
[40] abbreviates: second compound 10 µM, first compound 0.1 µM.
Where [41] appears, read: second compound 10 µM, first compound 0.316 µM.
The mark [42] stands for this setting: second compound 10 µM, first compound 1 µM.
[43] abbreviates: second compound 10 µM, first compound 3.16 µM.
[44] abbreviates: second compound 10 µM, first compound 10 µM.
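Further: spheroids exposed to the agents for 7 days.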
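Wherever viability, T/C is given: 100% = DMSO vehicle control viability.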

`CN(C)c1ccc(Nc2c3ccc(NC(=O)CCN4CCCC4)cc3nc3cc(NC(=O)CCN4CCCC4)ccc23)cc1`: the viability, T/C (compound 0.316 µM) was 97.1% [middle of 12 runs]. The IC50 under setting [1] was more than 10 µM.
In the case of `COc1ncnc(C2CC2)c1-c1ncc2cnn(Cc3ccc(-c4nc(C(F)(F)F)cn4C(C)C)cc3)c2n1`, the viability, T/C is 108% and 102% and 88.2% (compound 0.0316 µM); 74.8% and 112% and 95% (compound 0.1 µM); 108% and 90.8% and 83.2% (compound 0.316 µM); 75.4% and 97.9% and 84.9% (compound 1 µM); 82.6% and 103% and 75.4% (compound 3.16 µM); 80.2% and 58% and 77.7% (compound 10 µM). Further, under “curve of compound”, the IC50 is more than 10 µM.
On to `Cc1[nH]c2ccc(F)cc2c1-c1nc2c3cccnc3c3ncccc3c2[nH]1`, for which the viability, T/C was 95.2% [middle of 12 runs] (compound 0.1 µM), 98.8% [middle of 12 runs] (compound 0.316 µM) and 89.3% [middle of 12 runs] (compound 3.16 µM). Moreover, the IC50 is, setting by setting: under setting [2], more than 10 µM; under setting [1], more than 10 µM.
For the molecule `Cc1cnc(CNC(=O)c2c(=O)c3ccc(N4CCCN(C)CC4)nc3n3c2sc2ccccc23)cn1`, the viability, T/C was 95.7% [middle of 12 runs] (compound 0.1 µM), 96.5% [middle of 12 runs] (compound 0.316 µM), 103% [middle of 12 runs] (compound 1 µM) and 91.5% [middle of 12 runs] (compound 10 µM). Further, under setting [2], the IC50 is more than 10 µM.
In the case of `CC1COCCN1c1cc(C2(S(C)(=N)=O)CC2)nc(-c2ccnc3[nH]ccc23)n1` (stereo not drawn) + CN(C)c1ccc(Nc2c3ccc(NC(=O)CCN4CCCC4)cc3nc3cc(NC(=O)CCN4CCCC4)ccc23)cc1, the IC50 was 8.42 µM under setting [3]; more than 10 µM under setting [4]; more than 10 µM under setting [5]; more than 10 µM under setting [6]; more than 10 µM under setting [7]; more than 10 µM under setting [8]. Besides, the viability, T/C was 93.6% under setting [9]; 82.9% under setting [10]; 74.4% under setting [11]; 84.5% under setting [12]; 56% under setting [13]; 49% under setting [14]. Moreover, the viability, T/C runs as follows: under setting [15], 82.3%; under setting [16], 80%; under setting [17], 75.1%; under setting [18], 59.5%; under setting [19], 48.6%; under setting [20], 81.9%. Also, the viability, T/C under setting [21] was 98.7%; the viability, T/C under setting [22] is 66.3%; the viability, T/C under setting [23] is 79.2%; the viability, T/C under setting [24] was 76%; the viability, T/C under setting [25] is 65%; the viability, T/C under setting [26] is 76%. The viability, T/C runs as follows: under setting [27], 90%; under setting [28], 67.4%; under setting [29], 87.8%; under setting [30], 75.8%; under setting [31], 70.9%; under setting [32], 70.5%. The viability, T/C was 70.2% under setting [33]; 93% under setting [34]; 86.7% under setting [35]; 82.8% under setting [36]; 73.4% under setting [37]; 70.6% under setting [38]. Further, the viability, T/C under setting [39] is 77%; the viability, T/C under setting [40] is 95.7%; the viability, T/C under setting [41] was 94.5%; the viability, T/C under setting [42] is 88.9%; the viability, T/C under setting [43] is 55.5%; the viability, T/C under setting [44] was 77%.
In the case of `COc1ccc([C@@H](O)c2cc(-c3ncnc4cc(N5CCOCC5)ccc34)c(F)cc2Cl)nn1` + CN(C)c1ccc(Nc2c3ccc(NC(=O)CCN4CCCC4)cc3nc3cc(NC(=O)CCN4CCCC4)ccc23)cc1, the IC50 under setting [3] is more than 10 µM; the IC50 under setting [4] is more than 10 µM; the IC50 under setting [5] is more than 10 µM; the IC50 under setting [6] is more than 10 µM; the IC50 under setting [7] was more than 10 µM; the IC50 under setting [8] is more than 10 µM. The viability, T/C by setting is: under setting [9], 90.2%; under setting [10], 77.6%; under setting [11], 102%; under setting [12], 75%; under setting [13], 72.4%; under setting [14], 90%. Further, the viability, T/C is, setting by setting: under setting [15], 97%; under setting [16], 90.7%; under setting [17], 78.9%; under setting [18], 68.4%; under setting [19], 78%; under setting [20], 96.9%. Further, the viability, T/C was 85.9% under setting [21]; 65.8% under setting [22]; 90.1% under setting [23]; 60.3% under setting [24]; 81.9% under setting [25]; 84.9% under setting [26]. The viability, T/C under setting [27] was 77.8%; the viability, T/C under setting [28] was 82.5%; the viability, T/C under setting [29] was 86.6%; the viability, T/C under setting [30] was 67.1%; the viability, T/C under setting [31] is 100%; the viability, T/C under setting [32] was 95.2%. Moreover, the viability, T/C by setting is: under setting [33], 84%; under setting [34], 64.4%; under setting [35], 93.8%; under setting [36], 86.1%; under setting [37], 108%; under setting [38], 76.3%. Also, the viability, T/C was 82.9% under setting [39]; 86.2% under setting [40]; 93% under setting [41]; 84.7% under setting [42]; 95.2% under setting [43]; 74.1% under setting [44].
